The experiment concerns the target T1, GPR73 (prokineticin 1 receptor) (Homo sapiens, UniProt Q8TCW9).
T1 construct: expressed in transfected cells; host or cells: HEK 293
Briefly: PK1 functional assay: Ca2+ mobilization on the FLIPR. Format: cell-based. Conditions: for inhibition at 10 µM: read-out: Ca^2+ Mobilization % Inh @10 µM; for IC50: HEK 293 GPR73 cells, read-out: Ca^2+ Mobilization IC50. On the procedure: At a time of 24 h prior to running the assay, in cell culture media (DMEM containing high Glucose and L-glutamine, 10% FBS, 1% Pen/Streptomycin, 1% Sodium Pyruvate, 20 mM HEPES, Zeocin 200 mg/L), 100 µL of 1.3*10^6/ml HEK 293 GPR73 (prokineticin 1 receptor) expressing cells were plated in a 96 well poly-d-lysine coated plate (Costar), and incubated at 37° C. and 5% CO2. On the day in which the assay was run, the media was removed and 200 µL of 5× Calcium Plus Dye (Molecular Devices) which was previously resuspended with 200 mL of assay buffer [HBSS w/Ca^2+ and Mg^2+ w/o phenol red, 20 mM HEPES, 0.1% BSA, 10 mL probenecid (710 mg probenecid in 5 mL of 1N NaOH, to which was then added 5 mL HBSS containing 20 mM HEPES)] was added to each well of the 96-well plate. The plate was incubated at 37° C. and 5% CO2 for 30 min in dark. The plate was removed and allowed to reach RT for 15 min in the dark. The assay was then run on the FLIPR. In Brief: base line read for 1 min, compound added (25 μL) and incubated for 4 min, 15 seconds, PK1 ligand preparation added (25 μL) for a final concentration of a previously determined EC50 and fluorescence was counted for 1 min, 45 seconds. Baseline is described as the amount of relative fluorescence read when buffer alone is added to cells. Baseline was subtracted from all wells. Percent of control was calculated as follows: (Baseline subtracted well value is divided by baseline subtracted max value)*100. Percent inhibition is 100 minus the percent of control value.
The IC50 is defined as the amount of a given compound required to inhibit 50% of the maximum signal that is generated by the concentration of PK1 preparation used in our assay. IC50 values were calculated using GraphPad Prism.

Like-named read-outs stand apart in the source and are kept apart here. Bounds are passed on as bounds.

T1 sequence (Q8TCW9 whole entry, species assumed): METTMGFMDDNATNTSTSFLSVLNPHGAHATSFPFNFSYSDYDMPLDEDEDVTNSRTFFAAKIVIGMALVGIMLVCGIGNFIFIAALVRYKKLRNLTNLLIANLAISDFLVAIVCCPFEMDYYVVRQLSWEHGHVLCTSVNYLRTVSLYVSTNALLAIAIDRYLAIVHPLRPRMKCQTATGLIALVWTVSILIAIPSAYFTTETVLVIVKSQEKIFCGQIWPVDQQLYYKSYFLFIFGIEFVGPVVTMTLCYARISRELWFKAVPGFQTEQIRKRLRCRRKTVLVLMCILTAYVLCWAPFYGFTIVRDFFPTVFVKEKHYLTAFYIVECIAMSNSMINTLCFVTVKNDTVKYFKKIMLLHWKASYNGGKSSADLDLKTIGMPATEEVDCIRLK

Consider `COc1ccc(Cn2c(NCCNc3nc4ccccc4[nH]3)nc(=O)n(Cc3ccc(Cl)c(Cl)c3)c2=O)cc1` [Cpd 1, 6-[2-(1H-Benzoimidazol-2-ylamino)-ethylamino]-3-(3,4-dichloro-benzyl)-1-(4-methoxy-benzyl)-1H-[1,3,5]triazine-2,4-dione], for which the IC50 is over 10000 nM. In addition, the inhibition at 10 µM (10 µM) came out at 40.4%.
As for `COc1ccc(Cn2c(NCCn3ccnc3N)nc(=O)n(Cc3ccc(F)cc3)c2=O)cc1` [Cpd 2, 6-[2-(2-Amino-imidazol-1-yl)-ethylamino]-3-(4-fluoro-benzyl)-1-(4-methoxy-benzyl)-1H-[1,3,5]triazine-2,4-dione], the inhibition at 10 µM (10 µM, (further determination)) is 97% and the inhibition at 10 µM (10 µM) amounted to 97%. For the same compound, the IC50 (IC50 (further determination)) is 5 nM.
For the compound `COc1ccc(Cn2c(NCCc3cnc(N)[nH]3)nc(=O)n(Cc3ccc(F)cc3)c2=O)cc1` [Cpd 4], the IC50 worked out at 48 nM. The inhibition at 10 µM (10 µM, (further determination)) worked out at 96%. In addition, the inhibition at 10 µM (10 µM) was 97%. For the same compound, for the setting “IC50 (further determination)”, the IC50 was 42 nM.
`COc1ccc(Cn2c(NCCn3c(N)nc4cc(F)ccc43)nc(=O)n(Cc3ccc(F)cc3)c2=O)cc1` [Cpd 5]: the IC50 was determined as 69 nM. Besides, for the setting “10 µM”, the inhibition at 10 µM amounted to 102%.
The like results for `COc1ccc(Cn2c(NCc3c[nH]c(N)n3)nc(=O)n(Cc3ccc(F)cc3)c2=O)cc1` [Cpd 6] were, in that order, 322 nM and 91%.
The like results for `COc1ccc(Cn2c(NCCn3c(N)nc4cc(C(F)(F)F)ccc43)nc(=O)n(Cc3ccc(F)cc3)c2=O)cc1` [Cpd 8] were, in that order, 163 nM and 95%.
The matching figures for `COc1ccc(Cn2c(NCCn3c(N)nc4cc(S(C)(=O)=O)ccc43)nc(=O)n(Cc3ccc(F)cc3)c2=O)cc1` [Cpd 9]: 2290 nM and 67%.
With `COc1ccc(Cn2c(NCCn3c(N)nc4ccc(Cl)cc43)nc(=O)n(Cc3ccc(F)cc3)c2=O)cc1` [Cpd 10], the IC50 is 155 nM. The inhibition at 10 µM (10 µM) was 90%.
For the compound `COc1ccc(Cn2c(NCCn3c(N)nc4c(F)cccc43)nc(=O)n(Cc3ccc(F)cc3)c2=O)cc1` [Cpd 11], the IC50 came out at 146 nM. Besides, for the setting “10 µM”, the inhibition at 10 µM came to 89%.
In the case of `COc1ccc(Cn2c(NCCN3Cc4ccccc4N=C3N)nc(=O)n(Cc3ccc(F)cc3)c2=O)cc1` [Cpd 12, 6-[2-(2-Amino-4H-quinazolin-3-yl)-ethylamino]-3-(4-fluoro-benzyl)-1-(4-methoxy-benzyl)-1H-[1,3,5]triazine-2,4-dione], the IC50 was determined as 28 nM. Also, under “10 µM”, the inhibition at 10 µM is 94%.
As to `COc1ccc(Cn2c(C(=O)NCCn3c(N)nc4ccccc43)cc(=O)n(Cc3ccc(OC)cc3)c2=O)cc1` [Cpd 13, 1,3-Bis-(4-methoxy-benzyl)-2,6-dioxo-1,2,3,6-tetrahydro-pyrimidine-4-carboxylic acid [2-(2-amino-benzoimidazol-1-yl)-ethyl]-amide], the IC50 turned out to be 7390 nM. For the same compound, the inhibition at 10 µM (10 µM) was found to be 51%.
The matching figures for `COc1ccc(Cn2c(NCCn3c(N)nc4ccccc43)nc(=O)n(Cc3ccc(Cl)cc3)c2=O)cc1` [Cpd 14]: 77 nM and 95%.
For the compound `Nc1nc2ccccc2n1CCNc1nc(=O)n(Cc2ccc(F)cc2)c(=O)n1Cc1ccc(OC(F)(F)F)cc1` [Cpd 19], the IC50 was found to be 104 nM. In addition, for the setting “10 µM, (further determination)”, the inhibition at 10 µM was 100%. Also, the inhibition at 10 µM (10 µM) was 102%. Further, the IC50 (IC50 (further determination)) came to 212 nM.
On to `Nc1nc2ccccc2n1CCNc1nc(=O)n(Cc2ccc(F)cc2)c(=O)n1Cc1ccc(OC(F)F)cc1` [Cpd 20], for which the IC50 came to 53 nM. In addition, under “10 µM, (further determination)”, the inhibition at 10 µM was 101%. The inhibition at 10 µM (10 µM) amounted to 103%. Further, the IC50 (IC50 (further determination)) was found to be 52 nM.
Take `Nc1nccn1CCNc1nc(=O)n(Cc2ccc(F)cc2)c(=O)n1Cc1ccc(F)cc1` [Cpd 21]: the IC50 was over 10000 nM. Under “10 µM”, the inhibition at 10 µM worked out at 37%.
The like results for `Nc1nccn1CCNc1nc(=O)n(Cc2ccc(F)cc2)c(=O)n1Cc1ccc(OC(F)(F)F)cc1` [Cpd 22] were, in that order, 61 nM and 100%.
On to `Nc1nccn1CCNc1nc(=O)n(Cc2ccc(F)cc2)c(=O)n1Cc1ccc(OC(F)F)cc1` [Cpd 23], for which the IC50 amounted to 28 nM. For the setting “10 µM, (further determination)”, the inhibition at 10 µM amounted to 97%. The inhibition at 10 µM (10 µM) came out at 100%. Under “IC50 (further determination)”, the IC50 came to 57 nM.
Turning to `Nc1nc2ccc(F)cc2n1CCNc1nc(=O)n(Cc2ccc(F)cc2)c(=O)n1Cc1ccc(OC(F)F)cc1` [Cpd 25], the IC50 was 170 nM. Besides, the inhibition at 10 µM (10 µM) was found to be 87%.
Take `Nc1nc2cc(F)ccc2n1CCNc1nc(=O)n(Cc2ccc(F)cc2)c(=O)n1Cc1ccc(OC(F)F)cc1` [Cpd 26]: the IC50 turned out to be 81 nM. For the same compound, the inhibition at 10 µM (10 µM, (further determination)) came to 88%. For the setting “10 µM”, the inhibition at 10 µM worked out at 92%. In addition, the IC50 (IC50 (further determination)) is 15 nM.
For `Nc1nc2cc(C(F)(F)F)ccc2n1CCNc1nc(=O)n(Cc2ccc(F)cc2)c(=O)n1Cc1ccc(OC(F)F)cc1` [Cpd 27], the IC50 is 310 nM. In addition, the inhibition at 10 µM (10 µM) turned out to be 85%.
Regarding `Nc1nc2c(F)cc(F)cc2n1CCNc1nc(=O)n(Cc2ccc(F)cc2)c(=O)n1Cc1ccc(OC(F)F)cc1` [Cpd 28], the IC50 was over 10000 nM. Besides, the inhibition at 10 µM (10 µM) amounted to 39%.
The matching figures for `Nc1nc2ccc(F)c(F)c2n1CCNc1nc(=O)n(Cc2ccc(F)cc2)c(=O)n1Cc1ccc(OC(F)F)cc1` [Cpd 29]: 406 nM and 83%.
As to `Nc1nc2ccc(Cl)cc2n1CCNc1nc(=O)n(Cc2ccc(F)cc2)c(=O)n1Cc1ccc(OC(F)F)cc1` [Cpd 30], the IC50 stood at 252 nM. Besides, the inhibition at 10 µM (10 µM) was 86%.
Turning to `Nc1nc2cccc(F)c2n1CCNc1nc(=O)n(Cc2ccc(F)cc2)c(=O)n1Cc1ccc(OC(F)F)cc1` [Cpd 32], the half-maximal inhibitory concentration (IC50) was found to be 132 nM. Where the note is “10 µM”, the inhibition at 10 µM amounted to 94%.
The like results for `Nc1nc2ccc(F)cc2n1CCNc1nc(=O)n(Cc2ccc(F)cc2)c(=O)n1Cc1ccc(OC(F)(F)F)cc1` [Cpd 33] were, in that order, 323 nM and 93%.
The matching figures for `Nc1nc2cc(F)ccc2n1CCNc1nc(=O)n(Cc2ccc(F)cc2)c(=O)n1Cc1ccc(OC(F)(F)F)cc1` [Cpd 34]: 363 nM and 87%.
The matching figures for `Nc1nc2cc(C(F)(F)F)ccc2n1CCNc1nc(=O)n(Cc2ccc(F)cc2)c(=O)n1Cc1ccc(OC(F)(F)F)cc1` [Cpd 35]: 5010 nM and 59%.
As for `Nc1nc2c(F)cc(F)cc2n1CCNc1nc(=O)n(Cc2ccc(F)cc2)c(=O)n1Cc1ccc(OC(F)(F)F)cc1` [Cpd 36], the IC50 was found to be 8240 nM. The inhibition at 10 µM (10 µM) worked out at 50%.
The like results for `Nc1nc2ccc(F)c(F)c2n1CCNc1nc(=O)n(Cc2ccc(F)cc2)c(=O)n1Cc1ccc(OC(F)(F)F)cc1` [Cpd 37] were, in that order, 2200 nM and 72%.
The like results for `Nc1nc2ccc(Cl)cc2n1CCNc1nc(=O)n(Cc2ccc(F)cc2)c(=O)n1Cc1ccc(OC(F)(F)F)cc1` [Cpd 38] were, in that order, 670 nM and 84%.
The like results for `Nc1nc2c(F)cccc2n1CCNc1nc(=O)n(Cc2ccc(F)cc2)c(=O)n1Cc1ccc(OC(F)(F)F)cc1` [Cpd 39] were, in that order, 380 nM and 80%.
With `Nc1nc2cccc(F)c2n1CCNc1nc(=O)n(Cc2ccc(F)cc2)c(=O)n1Cc1ccc(OC(F)(F)F)cc1` [Cpd 40], the IC50 was found to be 969 nM. In addition, the inhibition at 10 µM (10 µM) was 91%.
On to `NC1=Nc2cccc(Cl)c2CN1CCNc1nc(=O)n(Cc2ccc(F)cc2)c(=O)n1Cc1ccc(OC(F)F)cc1` [Cpd 42], for which the IC50 came out at 63 nM. The inhibition at 10 µM (10 µM) came out at 101%.
The matching figures for `NC1=Nc2ccc(Cl)cc2CN1CCNc1nc(=O)n(Cc2ccc(F)cc2)c(=O)n1Cc1ccc(OC(F)F)cc1` [Cpd 43]: 111 nM and 101%.
In the case of `NC1=Nc2cc(Cl)ccc2CN1CCNc1nc(=O)n(Cc2ccc(F)cc2)c(=O)n1Cc1ccc(OC(F)F)cc1` [Cpd 44], the IC50 is 118 nM. The inhibition at 10 µM (10 µM) was 103%.
As for `NC1=Nc2ccc(F)cc2CN1CCNc1nc(=O)n(Cc2ccc(F)cc2)c(=O)n1Cc1ccc(OC(F)F)cc1` [Cpd 45], the IC50 is 92 nM. Moreover, under “10 µM”, the inhibition at 10 µM was found to be 101%.
The matching figures for `NC1=Nc2cc(F)ccc2CN1CCNc1nc(=O)n(Cc2ccc(F)cc2)c(=O)n1Cc1ccc(OC(F)F)cc1` [Cpd 46]: 61 nM and 101%.
The matching figures for `NC1=Nc2ccccc2CN1CCNc1nc(=O)n(Cc2ccc(F)cc2)c(=O)n1Cc1ccc(OC(F)(F)F)cc1` [Cpd 47]: 123 nM and 100%.
